{"source": "patent US20100028892A1", "about": "“YEAST BASED EXPRESSION OF PROTEASES AND METHODS OF USE” (Burnham Institute for Medical Research, priority 2008, published 2010)", "biological_target": "T1, Caspase8 activated with FADD + Fas (Homo sapiens, UniProt Q14790)", "T1 construct": "a small amount of each full-length Caspase construct was expressed with a large amount of adaptor protein FADD; HA (C); expressed in transfected cells; host or cells: Saccharomyces cerevisiae EGY48", "T1 sequence (Q14790 217-374 limits assumed)": "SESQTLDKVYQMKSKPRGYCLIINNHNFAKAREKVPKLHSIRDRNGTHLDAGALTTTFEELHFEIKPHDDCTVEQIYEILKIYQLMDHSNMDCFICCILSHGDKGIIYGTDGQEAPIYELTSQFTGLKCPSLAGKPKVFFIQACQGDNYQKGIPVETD", "T1 sequence (Q14790 385-479 limits assumed)": "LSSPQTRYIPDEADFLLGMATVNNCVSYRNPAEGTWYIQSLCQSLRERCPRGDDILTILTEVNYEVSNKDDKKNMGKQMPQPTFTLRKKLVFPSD", "assay": "yeast 384 well β-galactosidase reporter assay, Caspase8 activated with FADD + Fas", "assay_type": "cell-based", "settings": "Caspase8 activated with FADD + Fas in yeast, 384 well β-galactosidase activity assay", "text": "When converting the yeast-based protease reporter system to HTS assay, conditions from agar plates to liquid medium in microtiter wells must be revised. This revision comprises, utilizing the measured β-galactosidase produced by yeast carrying the Caspase-cleavable reporter proteins, and assaying the colorimetric product (OD620nm) derived from X-gal substrate in 384 well plates, as a measure of the lacZ reporter gene activity. We compared β-galactosidase activity produced in the presence or absence of the broad-spectrum caspase inhibitory compound, zVAD-fmk ([…]-Valinyl-Alaninyl-Aspartyl-fluoromethylketone). […] Note that it was determined that it is not advisible to employ glucose in yeast media because it represses the GAL1 promoter used in some plasmids. […]\nYeast expressing various Caspases alone (at high levels) or in combination with upstream activators (at low levels) and cleavable substrates containing appropriate tetrapeptides reorganized by these proteases were used in 384 well β-galactosidase activity assays to assess inhibition by zVAD-fmk. The compound was titrated into assays at various concentrations and percentage inhibition was determined.\nAssays were performed in a total volume of […] in triplicate. […] Absorbance at 620 nm was measured 2-3 days after culture at 30° C.", "data": [{"substance": "benzoyl-Valinyl-Alaninyl-Aspartyl-fluoromethylketone [zVAD-fmk]", "values": [{"measurement": "IC50", "value": 5.42, "unit": "µM"}]}]}
